Test results as given in the Deep4Chem optical property database.

Test: solvent given as SMILES

Compound	absorption maximum (in C1CCOC1) [nm]	absorption maximum (in CC#N) [nm]	absorption maximum (in Cc1ccccc1) [nm]	absorption maximum (in ClCCl) [nm]	further results
CCCC1(CCC)c2ccccc2-c2ccc(-c3ccc4c(c3)C(CCC)(CCC)c3cc(-c5ccc6c(c5)C(CCC)(CCC)c5cc(-c7ccc8c(c7)C(CCC)(CCC)c7ccccc7-8)ccc5-6)ccc3-4)cc21					absorption maximum (in C1CCCCC1): 360 nm
c1ccc(-c2nc(-c3ccc(-c4ccc(-n5c6ccccc6c6ccccc65)cc4)cn3)oc2-c2ccccc2)cc1	333	330	338		absorption maximum (in C1COCCO1): 326 nm; absorption maximum (in CC(C)=O): 333 nm; absorption maximum (in CC(C)OC(C)C): 334 nm; absorption maximum (in CCCCCC): 336 nm; absorption maximum (in CCCCOCCCC): 336 nm; absorption maximum (in CCN(CC)CC): 333 nm; absorption maximum (in CCOC(C)=O): 332 nm; absorption maximum (in CCOCC): 333 nm; absorption maximum (in c1ccccc1): 338 nm
COc1ccc(-c2csc(/C(C#N)=C\Nc3ccc(C#N)cc3)n2)cc1		376	381	379	absorption maximum (in CCO): 378 nm; absorption maximum (in CN(C)C=O): 380 nm
Brc1cc2nc3cc4c5c(cccc5c3nc2cc1Br)C(c1ccccc1)=C(c1ccccc1)O4				518	
F[B-]1(F)Oc2ccc3ccccc3c2-c2c3c(c4c([n+]21)CCc1ccccc1-4)CCc1ccccc1-3				346	
CCCCCCCc1cc2c(o1)=CC1=C3c4cc5oc(CCCCCCC)cc5n4[B-](F)(F)[n+]4nnn(c43)[B-](F)(F)[N+]=21	676			685	
CC1(C)CC(/C=C/c2ccc(-n3cccn3)cc2)=CC(=C(C#N)C#N)C1	405	397		404	absorption maximum (in CCO): 404 nm; absorption maximum (in CCOC(C)=O): 403 nm; absorption maximum (in c1ccccc1): 407 nm
CCN(CC)c1ccc(-c2nc3c(c4c2-c2ccc(C#N)cc2CC4)-c2ccc(C#N)cc2CC3)cc1	364	360	368	363	absorption maximum (in CCCCCC): 369 nm; absorption maximum (in CCOC(C)=O): 358 nm; absorption maximum (in CO): 360 nm; absorption maximum (in CS(C)=O): 375 nm
O=C1c2ccccc2-c2nc3ccccc3n21				340	
CC(C)(C)c1ccc2c3c(c4ccc(C(C)(C)C)cc4c2c1)=[N+]1C(=C(c2ccccc2)c2c(Br)c4c5ccc(C(C)(C)C)cc5c5cc(C(C)(C)C)ccc5c4n2[B-]1(F)F)C=3Br	686	682	691	689	absorption maximum (in C1CCCCC1): 689 nm
COC(=O)c1cc(=O)n(C)c2cc(-c3ccc(N4CCN(C)CC4)cc3)sc12		418		420	
F[B-]12Oc3ccccc3-c3c4[n+]5c(c([n+]31)-c1ccccc1O2)-c1ccccc1O[B-]5(F)Oc1ccccc1-4				553	
FC(F)(F)c1ccc(-c2nnc(-c3cc(-c4nnc(-c5ccc(C(F)(F)F)cc5)o4)c(-n4c5ccccc5c5ccccc54)cc3-n3c4ccccc4c4ccccc43)o2)cc1			376		
c1ccc(-c2ccc3c4ccc(-c5ccccc5)c5c(-c6ccccc6)ccc(c6ccc(-c7ccccc7)c2c36)c54)cc1				486	
COc1cc2cc(OC)c(C#Cc3ccc([N+](=O)[O-])cc3)cc2cc1C#Cc1ccc([N+](=O)[O-])cc1	361			360	absorption maximum (in ClC(Cl)Cl): 362 nm
CC[N+]1(CC)CN2C(=N1)C(C(=O)[O-])=Cc1ccccc12					absorption maximum (in CN(C)C=O): 378 nm; absorption maximum (in O): 369 nm
